# Literature values in patent publication US7595169B2, “Method for determining percent platelet aggregation” (Accumetrics, Inc., priority 2005, dated 2009).
# Test system: platelet aggregation
# Settings: patients with stable angina pectoris scheduled for elective coronary stent placement; literature study
smiles,measurement,value
COC(=O)[C@H](c1ccccc1Cl)N1CCc2sccc2C1 [clopidogrel],patients receiving the drug who did not achieve the expected platelet aggregation inhibition,at least 10%
